The assay concerns tumors. Kind of assay: Fluorescence tumor imaging dose versus PDT therapeutic dose (FIG. 4). It counts as in vivo.

Take `CCCCCCOC(C)c1c(C)c2cc3nc(c4c5[nH]c(cc6nc(cc1[nH]2)C(C)=C6CC)c(C)c5C(=O)C4)C(CCC(=O)Nc1ccc(SC2=C(C=CC4=[N+](CCCCS(=O)(=O)[O-])c5ccc6ccccc6c5C4(C)C)CCCC2=CC=C2N(CCCCS(=O)(=O)[O-])c4ccc5ccccc5c4C2(C)C)cc1)C3C.[Na+]` (stereo not shown) [HPPH-CD]: the “therapeutic dose relative to tumor-imaging dose (fold higher)” value was approximately 10 fold.
